According to patent US7279321B2, “Methods for increasing the resistance of a host cell to aromatic carboxylic acids” (priority 2003, dated 2007):
Values after ≈ are worked out from the molar mass of the structure shown.

Legend:
Format in all cases: cell-based
[1] = test system: E. coli strain DPD2444 (yhcP::TN<Kan>); assay: MIC, 2-fold dilutions, Vogel-Bonner medium with 0.4% glucose; conditions: Escherichia coli, read-out: MIC for pHBA
Excerpt: The yhcP::TN<Kan> was introduced into E. coli strain MG1655 (obtained from Prof. Douglas Berg, Washington University School of Medicine, St. Louis, […].) by P1clr100 Cm mediated transduction to kanamycin resistance using phage lysates of E. coli strain DPD2443. One of the resultant kanamycin resistant transductants was named DPD2444.

[2] = test system: E. coli strain MG1655; assay: pHBA zone of growth inhibition on solidified Vogel-Bonner medium; conditions: sodium salt of pHBA 80 μmoles/disk, Vogel-Bonner with glucose
Method: This was tested by measuring the size of the zone of growth inhibition and scoring the degree of growth within the zones resulting from the sodium salt of pHBA (80 μmoles/disk) on solidified Vogel-Bonner medium with glucose as the carbon source (Table 5).

[3] = test system: E. coli strain DPD2459 (MG1655 + with pKK223-3 control plasmid); assay: pHBA zone of growth inhibition, plasmid-carrying strains (Table 9)
Excerpt: (§1) Plasmids pDEW668, pDEW673, pDEW675, and a control plasmid, pTrcHis2TOPO®/lacZ (Invitrogen), were moved by transformation to E. coli strain DPD2433, selecting for Ampicillin resistance, to generate strains DPD3317, DPD2455, DPD2457, and DPD3316, respectively.
(§2) The YhcP-Left primer was designed to contain a HindIII site and the YhcP-Right primer was designed to contain an EcoRI site for directional cloning of the resultant PCR product. […] The product of the PCR reaction was digested with restriction enzymes EcoRI and HindIII. The restriction digestion also contained pKK223-3 at an approximate molar ratio of 2:1 (insert:vector). Following incubation at 37° C. for 1.5 hours, the enzymes were inactivated by incubation at 65° C. for 20 minutes. The enzymes were subsequently removed by use a Qiaquick PCR purification kit (Qiagen) according to the vendor's instructions. The purified restriction products were ligated using T4 DNA ligase at 16° C. overnight. Following ligation, PstI and SmaI digestions were used to linearize the vector without insert DNA. The DNA from this selection digestion was used for transformation of E. coli strain JM105 (Amersham Pharmacia Biotech Inc., Piscataway, N.J.) using selection for Ampicillin resistance. Plasmid DNA from individual transformants was digested with EcoRI and HindIII. […] This plasmid and others were placed in various host strains by transformation and selection for Ampicillin resistance.

[4] = test system: E. coli strain DPD2463 (DPD2444 yhcP− with pDEW659 yhcP); assay: as above
Excerpt: as §1, §2

[5] = test system: E. coli strain DPD2464 (DPD2444 yhcP− with pDEW673 yhcQP); assay: as above
Excerpt: as §1, §2

[6] = test system: E. coli strain DPD2465 (DPD2444 yhcP− with pDEW675 yhcRQ); assay: as above
Excerpt: as §1, §2

[7] = test system: E. coli strain DPD2466 (DPD2433 yhcS− with pKK223-3 control plasmid); assay: as above
Excerpt: as §1, §2

[8] = test system: E. coli strain DPD2467 (DPD2433 yhcS− with pDEW659 yhcP); assay: as above
Excerpt: as §1, §2

[9] = test system: E. coli DPD1818 (tolC−) with pDEW668 (yhcRQP); assay: pHBA MIC, 3:4 dilutions, Vogel-Bonner medium with 0.4% glucose; conditions: Escherichia coli, 21 h, read-out: pHBA MIC
Excerpt: (§3) An additional experiment is consistent with the above conclusion. This experiment used E. coli strain MG1655 and strains derived from it, DPD1818 (described above in this example) with a to/C::miniTn10 mutation, […] (described in example 3) with a yhcS::TN<Kan> mutation, and DPD2435 that carries both the to/C::miniTn10 and yhcS::TN<Kan> mutations. The latter strain was constructed using P1clr100Cm mediated transduction of DE112 with phage grown on strain DPD2410 (described in Example 3) and selection for kanamycin resistance. These four strains were each transformed with plasmids pTrcHis2TOPO®/lacZ (Invitrogen) for a control and pDEW668 that expresses the yhcRQP operon (described in Example 2). […] Vogel-Bonner minimal medium with 0.4% glucose was used. […] The inoculum was 50 μl of a 1:500 dilution into Vogel-Bonner medium with 0.4% glucose as a carbon source of overnight cultures of each of the plasmid-containing strains grown in the same medium except with addition of 25 μg/ml Ampicillin.

[10] = test system: E. coli DPD1818 (tolC−) with pTrcHis2TOPO®/lacZ (control); assay: as above; conditions: Escherichia coli, 21 h, read-out: pHBA MIC
Excerpt: as §3

[11] = test system: E. coli DPD2433 (yhcS−) with pDEW668 (yhcRQP); assay: as above; conditions: Escherichia coli, 21 h, read-out: pHBA MIC
Excerpt: as §3

[12] = test system: E. coli DPD2433 (yhcS−) with pTrcHis2TOPO®/lacZ (control); assay: as above; conditions: Escherichia coli, 21 h, read-out: pHBA MIC
Excerpt: as §3

[13] = test system: E. coli DPD2435 (yhcS−, tolC−) with pDEW668 (yhcRQP); assay: as above; conditions: Escherichia coli, 21 h, read-out: pHBA MIC
Excerpt: as §3

[14] = test system: E. coli DPD2435 (yhcS−, tolC−) with pTrcHis2TOPO®/lacZ (control); assay: as above; conditions: Escherichia coli, 21 h, read-out: pHBA MIC
Excerpt: as §3

[15] = test system: E. coli MG1655 (+) with pDEW668 (yhcRQP); assay: as above; conditions: Escherichia coli, MG1655, 21 h, read-out: pHBA MIC
Excerpt: as §3

[16] = test system: E. coli MG1655 (+) with pTrcHis2TOPO®/lacZ (control); assay: as above; conditions: Escherichia coli, read-out: pHBA MIC, control plasmid, 21 hours at 37° C., sodium salt, highest tested 100 mM
Excerpt: as §3

[17] = test system: yhcP gene (co-transcribed with yhcQ and yhcR); assay: expression of yhcP upon treatment of E. coli cells with aromatic carboxylic acids

Structure (SMILES): O=C(O)c1ccc(O)cc1 [pHBA, para-hydroxybenzoic acid]
- MIC [1]: 25 mM (≈ 3.45 mg/mL)
- degree of growth within the pHBA zone of growth inhibition [2]: turbid
- pHBA zone of growth inhibition, mm diameter ([2]; average of two experiments): 9.5 mm
- clarity of pHBA zone of growth inhibition [3]: turbid
- pHBA zone of growth inhibition, mm diameter ([3]; tested as for Table 8): 10.0 mm
- clarity of pHBA zone of growth inhibition [4]: turbid
- pHBA zone of growth inhibition, mm diameter ([4]; tested as for Table 8): 10.5 mm
- clarity of pHBA zone of growth inhibition [5]: turbid
- pHBA zone of growth inhibition, mm diameter ([5]; tested as for Table 8): 9.8 mm
- clarity of pHBA zone of growth inhibition [6]: clear
- pHBA zone of growth inhibition, mm diameter ([6]; tested as for Table 8): 21.8 mm
- clarity of pHBA zone of growth inhibition [7]: clear
- pHBA zone of growth inhibition, mm diameter ([7]; tested as for Table 8): 19.2 mm
- clarity of pHBA zone of growth inhibition [8]: clear
- pHBA zone of growth inhibition, mm diameter ([8]; tested as for Table 8): 18.8 mm
- MIC [9]: 100 mM (≈ 13.8 mg/mL)
- MIC [10]: 56 mM (≈ 7.73 mg/mL)
- MIC [11]: 100 mM (≈ 13.8 mg/mL)
- MIC [12]: 18 mM (≈ 2.49 mg/mL)
- MIC [13]: 100 mM (≈ 13.8 mg/mL)
- MIC [14]: 13 mM (≈ 1.8 mg/mL)
- MIC [15]: 100 mM (≈ 13.8 mg/mL)
- MIC [16]: 100 mM
- expression of the yhcP gene upon treatment of E. coli cells [17]: highly upregulated
